System: human MET
Test: MET biochemical kinase assay
Parameters: concentration or dose not given beside the values
Text: (d) MET Biochemical Kinase Assay
A met biochemical kinase assay may be performed for met generally as described above for other kinases by substituting that or the other kinases. In particular, ELISA plates are coated with goat anti-rabbit Fc antibodies, which are used to capture commercially available (from Santa Cruz Biotechnology) rabbit polyclonal antibodies to the cytoplasmic domain of human MET. […] The chimeric receptors, or MET, from these lysates are captured on the antibody coated plates. After washing away extraneous proteins, test compounds are added and an in vitro kinase assay is performed by addition of an appropriate kinase buffer (containing ATP, divalent metal ions, etc.). Incorporation of phosphate into the captured receptors is detected with an anti-phosphotyrosine antibody conjugate with horse radish peroxidase using TMB as a substrate for calorimetric detection.

SMILES	Met Kinase % Inhibition [%]
O=C1Nc2ccc(S(=O)(=O)N3CCOCC3)cc2C1=Cc1ccc(O)c(O)c1O [10723/F02]	99.0
Cc1c(Br)ccc2c1C(=Cc1cccn1-c1ccc(Cl)cc1)C(=O)N2 [10724/C09]	5.3
Cc1ccc(C=C2C(=O)Nc3ccc(I)cc32)s1 [10717/B07]	90.0
O=C1Nc2ccc(CCCl)cc2C1=Cc1ccccc1O [10720/G05]	37.0
Cc1c(Br)ccc2c1C(=Cc1ccc(Br)o1)C(=O)N2 [10726/C05]	58.0
O=C1Nc2ccc(S(=O)(=O)Nc3ccc(C(F)(F)F)cc3)cc2C1=Cc1ccc(N2CCCC2)cc1 [10729/E10]	7.5
COc1cc(OC)c(C=C2C(=O)Nc3c(Br)cc(Br)cc32)c(OC)c1 [10719/A06]	−7.0
O=C1Nc2ccc(I)cc2C1=Cc1cc(C(F)(F)F)ccc1F [10728/B08]	77.0
CNS(=O)(=O)c1ccc2c(c1)C(=Cc1ccc(O)c(C(C)(C)C)c1)C(=O)N2 [10721/D09]	−4.9
O=C1Nc2c(Br)cc(Br)cc2C1=Cc1cc2ccccc2nc1Cl [10730/A08]	69.0
CC(C)(C)c1cc(C=C2C(=O)Nc3ccc(S(=O)(=O)Nc4ccc(C(F)(F)F)cc4)cc32)cc(Cl)c1OCc1ccccc1 [10732/E10]	1.6
O=C1Nc2ccc(I)cc2C1=Cc1cc2c(cc1Cl)OCO2 [10727/B06]	91.0
O=C1Nc2ccc(I)cc2C1=Cc1ccc(O)c([N+](=O)[O-])c1 [10724/B03]	51.0
CNS(=O)(=O)c1ccc2c(c1)C(=Cc1ccc(Br)cc1)C(=O)N2 [10717/D08]	16.0
O=C1Nc2ccc(CCCl)cc2C1=Cc1ccccc1Sc1ccc(Cl)cc1 [10727/G05]	7.1
O=C1Nc2ccc(CCCl)cc2C1=Cc1ccc(F)cc1 [10717/G05]	4.7
Cc1c(Br)ccc2c1C(=Cc1cc(Cl)c(OCc3ccccc3)c(C(C)(C)C)c1)C(=O)N2 [10732/C10]	43.0
COc1c(C(C)(C)C)cc(C=C2C(=O)Nc3c(Br)cc(Br)cc32)cc1C(C)(C)C [10733/A04]	24.0
O=C1Nc2ccc(S(=O)(=O)Nc3ccc(C(F)(F)F)cc3)cc2C1=Cc1ccc(C(=O)O)cc1 [10722/E05]	73.0

SMILES	Met Kinase % Inhibition [%]
Cc1ccc(C=C2C(=O)Nc3ccc(CCCl)cc32)s1 [10717/G07]	7.5
Cc1c(Br)ccc2c1C(=Cc1cc(C(C)(C)C)cc(C(C)(C)C)c1O)C(=O)N2 [10723/C11]	47.0
CNS(=O)(=O)c1ccc2c(c1)C(=Cc1cc(C)c(OC)c(C)c1)C(=O)N2 [10733/D06]	−19.4
CCOc1ccc(C=C2C(=O)Nc3ccc(CCCl)cc32)cc1OC [10719/G02]	−2.4
Cc1c(Br)ccc2c1C(=Cc1ccccc1Sc1ccc(Cl)cc1)C(=O)N2 [10727/C05]	8.9
O=C1Nc2ccc(CCCl)cc2C1=Cc1cc(Cl)cc(Br)c1O [10727/G04]	94.0
COc1ccc(C=C2C(=O)Nc3ccc(S(=O)(=O)N4CCOCC4)cc32)c(OC)c1OC [10730/F02]	−6.2
O=C1Nc2ccc(S(=O)(=O)Nc3ccc(C(F)(F)F)cc3)cc2C1=Cc1cccc(Oc2ccccc2)c1 [10729/E06]	−0.7
Cc1c(Br)ccc2c1C(=Cc1ccc(O)c(C(C)(C)C)c1)C(=O)N2 [10721/C09]	−4.7
O=C1Nc2ccc(CCCl)cc2C1=Cc1ccc(F)cc1Cl [10719/G09]	1.3
Cc1c(Br)ccc2c1C(=Cc1nn(C)cc1Cl)C(=O)N2 [10721/C03]	6.2
O=C1Nc2ccc(S(=O)(=O)Nc3ccc(C(F)(F)F)cc3)cc2C1=Cc1c(F)cccc1C(F)(F)F [10728/E09]	40.0
COc1c(C(C)C)cc(C=C2C(=O)Nc3ccc(Br)c(C)c32)cc1C(C)C [10732/C03]	14.0
Cc1c(Br)ccc2c1C(=Cc1c(Br)cnn1-c1ccc(Cl)cc1)C(=O)N2 [10725/C10]	−0.6
Cc1c(Br)ccc2c1C(=Cc1cccc([N+](=O)[O-])c1)C(=O)N2 [10719/C10]	7.9
CCCCN(CCCC)c1ccc(C=C2C(=O)Nc3ccc(CCCl)cc32)cc1 [10722/G10]	27.0
O=C1Nc2c(Br)cc(Br)cc2C1=Cc1ccc(F)cc1Cl [10719/A09]	47.0
CNS(=O)(=O)c1ccc2c(c1)C(=Cc1ccc(O)c(C)c1O)C(=O)N2 [10718/D09]	9.9

Further lines, results first:

Met Kinase % Inhibition [%]	SMILES
−4.5	COc1cc(OC)c(C=C2C(=O)Nc3ccc(S(=O)(=O)Nc4ccc(C(F)(F)F)cc4)cc32)c(OC)c1 [10719/E06]
28.0	CCN(CC)c1ccc(C=C2C(=O)Nc3ccc(S(=O)(=O)Nc4ccc(C(F)(F)F)cc4)cc32)cc1 [10727/E02]
24.0	CCOc1ccccc1C=C1C(=O)Nc2ccc(S(=O)(=O)Nc3ccc(C(F)(F)F)cc3)cc21 [10717/E02]
79.0	COc1cc(Br)cc(C=C2C(=O)Nc3ccc(CCCl)cc32)c1O [10733/G08]
72.0	CC(C)(C)c1cc(C=C2C(=O)Nc3ccc(I)cc32)cc(Cl)c1O [10722/B08]
3.3	COc1ccc(C=C2C(=O)Nc3ccc(S(=O)(=O)N4CCOCC4)cc32)c(OC)c1 [10719/F04]
−18.1	COc1cc(OC)c(C=C2C(=O)Nc3ccc(CCCl)cc32)c(OC)c1 [10719/G06]
−0.6	COc1cc(OC)c(OC)cc1C=C1C(=O)Nc2ccc(S(=O)(=O)N3CCOCC3)cc21 [10730/F03]
−6.8	CNS(=O)(=O)c1ccc2c(c1)C(=Cc1cc(C)c(OCc3ccccc3)c(C)c1)C(=O)N2 [10733/D07]
93.0	CNS(=O)(=O)c1ccc2c(c1)C(=Cc1ccc(O)c(O)c1O)C(=O)N2 [10723/D02]
3.9	COc1c(C(C)C)cc(C=C2C(=O)Nc3ccc(S(=O)(=O)Nc4ccc(C(F)(F)F)cc4)cc32)cc1C(C)C [10732/E03]
39.0	CCc1c(C)[nH]c(C=C2C(=O)Nc3ccc(S(=O)(=O)Nc4ccc(C(F)(F)F)cc4)cc32)c1C [10719/E05]
36.0	COc1cc(C=C2C(=O)Nc3ccc(S(=O)(=O)N4CCOCC4)cc32)cc(OC)c1OC [10730/F04]
4.4	COc1ccc2[nH]cc(C=C3C(=O)Nc4ccc(CCCl)cc43)c2c1 [10731/G09]
5.0	COc1ccc(C=C2C(=O)Nc3ccc(CCCl)cc32)cc1OC [10720/G04]
74.0	O=CN1CCN(c2ccc(C=C3C(=O)Nc4ccc(I)cc43)cc2)CC1 [10725/B07]
60.0	CNS(=O)(=O)c1ccc2c(c1)C(=Cc1ccc(O)c(C)c1)C(=O)N2 [10723/D06]
43.0	O=C1Nc2ccc(CCCl)cc2C1=Cc1ccccc1Br [10723/G07]
95.0	CCc1ccc(C=C2C(=O)Nc3ccc(I)cc32)o1 [10724/B10]
10.0	O=C1Nc2ccc(CCCl)cc2C1=Cc1ccc(Cl)s1 [10721/G07]

Met Kinase % Inhibition [%]	SMILES
76.0	CNS(=O)(=O)c1ccc2c(c1)C(=Cc1cc(Cl)cc(Br)c1O)C(=O)N2 [10727/D04]
51.0	O=C1Nc2ccc(CCCl)cc2C1=Cc1csc([N+](=O)[O-])c1 [10722/G09]
−0.0	CC(C)(C)c1cc(C=C2C(=O)Nc3ccc(CCCl)cc32)cc(C(C)(C)C)c1O [10721/G11]
47.0	CCOc1ccc(C=C2C(=O)Nc3ccc(I)cc32)cc1OC [10719/B02]
9.7	CNS(=O)(=O)c1ccc2c(c1)C(=Cc1cc(C)c(C)o1)C(=O)N2 [10730/D11]
5.4	COc1ccc(OC)c(C=C2C(=O)Nc3ccc(S(=O)(=O)Nc4ccc(C(F)(F)F)cc4)cc32)c1 [10728/E02]
43.0	Cc1csc2sc(C=C3C(=O)Nc4ccc(I)cc43)c(C)c12 [10724/B11]
92.0	CNS(=O)(=O)c1ccc2c(c1)C(=Cc1cc(Br)cc(Br)c1O)C(=O)N2 [10734/D07]
24.0	CCc1cc(CC)c(C=C2C(=O)Nc3ccc(S(=O)(=O)NC)cc32)[nH]1 [10727/D03]
27.0	O=C1Nc2ccc(S(=O)(=O)Nc3ccc(C(F)(F)F)cc3)cc2C1=Cc1cccn1-c1ccc(Cl)cc1 [10724/E09]
61.0	O=C1Nc2ccc(CCCl)cc2C1=Cc1cc2c3c(c1O)CCCN3CCC2 [10724/G05]
28.0	CNS(=O)(=O)c1ccc2c(c1)C(=Cc1[nH]c(Cl)c(CC(=O)OC)c1C(=O)OC)C(=O)N2 [10725/D09]
2.3	CNS(=O)(=O)c1ccc2c(c1)C(=Cc1ccc(Cl)c([N+](=O)[O-])c1)C(=O)N2 [10718/D08]
8.7	CCOC(=O)CCc1c(C(=O)OCC)[nH]c(C=C2C(=O)Nc3ccc(Br)c(C)c32)c1CC(=O)OCC [10718/C05]
−0.8	COc1cccc(C=C2C(=O)Nc3ccc(CCCl)cc32)c1OC [10727/G11]
−2.2	O=C1Nc2ccc(S(=O)(=O)Nc3ccc(C(F)(F)F)cc3)cc2C1=Cc1cc2c(cc1Cl)OCO2 [10727/E06]
71.0	O=C1Nc2ccc(S(=O)(=O)Nc3ccc(C(F)(F)F)cc3)cc2C1=Cc1ccc(Br)o1 [10726/E05]
8.9	Cc1c(Br)ccc2c1C(=Cc1ccc(F)cc1Cl)C(=O)N2 [10719/C09]
55.0	CCN(CC)c1ccc(C=C2C(=O)Nc3ccc(S(=O)(=O)NC)cc32)c(O)c1 [10734/D05]
